{
  "source": "patent US20110092515A1",
  "about": "“MELT GRANULATION PROCESS” (priority 2008, published 2011)",
  "assay": "Relative solubility of the physical forms",
  "format": "physicochemical",
  "conditions": "monohydrate as impurity in the anhydrous form",
  "data": [
    {"compound": "CC(O)C(=O)O.CN1CCN(c2ccc3nc(-c4c(N)c5c(F)cccc5[nH]c4=O)[nH]c3c2)CC1", "note": "[monohydrate form, 4-amino-5-fluoro-3-[5-(4-methylpiperazin-1-yl)-1H-benzimidazol-2-yl]quinolin-2(1H)-one lactic acid salt]", "values": [
      {"measurement": "solubility compared with the anhydrous form", "result": "less soluble"}
    ]}
  ]
}
